Test results published in patent US20080221132A1, “Multi-Functional Small Molecules as Anti-Proliferative Agents” (priority 2006, published 2008).
Like-named read-outs stand apart in the source and are kept apart here.

Experiments:
[1] = target: C-Raf (Homo sapiens, UniProt P04049, Y340D/Y341D); assay: Raf kinase assay (Upstate kit, MEK-1 substrate, dot blot), C-Raf; format: biochemical; settings: TABLE 6-B (Section 6 compounds)
Method: The Raf kinase assay was performed by following the protocol of Raf kinase assay kit (B-Raf, Upstate, catalog#17-359; C-Raf, Upstate, catalog#17-360) with modifications. Briefly, assay buffer, ATP, substrate and Raf kinase were mixed in a 96 well assay plate. The final kinase assay mixture contained 20 mM MOPS, pH7.2, 25 mM β-glycerol phosphate, 5 mM EGTA, 1 mM sodium orthovanadate, 1 mM DTT, 250 μM ATP and 37.5 mM magnesium chloride, 0.1 μg/well of Raf kinase, and 1 μg/well of MEK-1 substrate protein. Assay samples were incubated for 30 min at room temperature. The kinase reaction was stopped by adding EDTA, pH8 to a final concentration of 25 mM. A 10 μl of the reaction sample was spotted onto nitrocellulose filter and dot blot was performed by adding 1 μg/ml of anti-phospho-MEK-1 antibody in the blocking solution (Licor Bioscience, catalogue #927-40000). The nitrocellulose filter was subsequently incubated with secondary IRDye 800CW goat anti-rabbit antibody (Licor Bioscience, catalogue #926-32211) before reading the signal on an Odyssey imager (Licor Bioscience).

[2] = test system: Lung_H1703; assay: Cell proliferation assay (ATPlite), H1703; format: cell-based; settings: Homo sapiens, NCI-H1703; TABLE C; 72 hours, 0.5% fetal bovine serum, ATP content; read-out: IC50 grading, Lung_H1703
Method: (§1) A representative number of compounds were assayed against several different cell lines using the cell proliferation assay:
(§2) Cell Proliferation Assay:
(§3) Cancer cell lines were plated at 5,000 to 10,000 per well in 96-well flatted bottomed plates with various concentration of compounds. The cells were incubated with compounds for 72 hours in the presence of 0.5% of fetal bovine serum. Growth inhibition was accessed by adenosine triphosphate (ATP) content assay using Perkin Elmer ATPlite kit. ATPlite is an ATP monitoring system based on firefly luciferase. Briefly, 25 μl of mammalian cell lysis solution was added to 50 μl of phenol red-free culture medium per well to lyse the cells and stabilize the ATP. 25 μl of substrate solution was then added to the well and subsequently the luminescence was measured.

[3] = test system: Pancreas_BxPC3; assay: Cell proliferation assay (ATPlite), BxPC3; format: cell-based; settings: Homo sapiens, BXPC-3; TABLE C; 72 hours, 0.5% fetal bovine serum, ATP content; read-out: IC50 grading, Pancreas_BxPC3
Method: as §1, §2, §3

[4] = test system: Lung_H358; assay: Cell proliferation assay (ATPlite), H358; format: cell-based; settings: Homo sapiens, NCI-H358; TABLE C; 72 hours, 0.5% fetal bovine serum, ATP content; read-out: IC50 grading, Lung_H358
Method: as §1, §2, §3

[5] = test system: Lung_H2122; assay: Cell proliferation assay (ATPlite), H2122; format: cell-based; settings: Homo sapiens, NCI-H2122; TABLE C; 72 hours, 0.5% fetal bovine serum, ATP content; read-out: IC50 grading, Lung_H2122
Method: as §1, §2, §3

[6] = test system: Pancreas_Capan1; assay: Cell proliferation assay (ATPlite), Capan1; format: cell-based; settings: Homo sapiens, CAPAN-1; TABLE C; 72 hours, 0.5% fetal bovine serum, ATP content; read-out: IC50 grading, Pancreas_Capan1
Method: as §1, §2, §3

[7] = test system: Lung_H460; assay: Cell proliferation assay (ATPlite), H460; format: cell-based; settings: Homo sapiens, NCI-H460; TABLE C; 72 hours, 0.5% fetal bovine serum, ATP content; read-out: IC50 grading, Lung_H460
Method: as §1, §2, §3

[8] = test system: Lung_H1975; assay: Cell proliferation assay (ATPlite), H1975; format: cell-based; settings: Homo sapiens, NCI-H1975; TABLE C; 72 hours, 0.5% fetal bovine serum, ATP content; read-out: IC50 grading, Lung_H1975
Method: as §1, §2, §3

[9] = test system: Prostate_PC3 (PC-3, prostate adenocarcinoma); assay: Cell proliferation assay (ATPlite), PC3; format: cell-based
Method: as §1, §2
as §3, with “The cells were incubated with compounds for 72 hours in the presence of 0.5% of fetal bovine serum.” left out

[10] = test system: Lung_HCC827; assay: Cell proliferation assay (ATPlite), HCC827; format: cell-based; settings: Homo sapiens, TABLE C, 72 hours, 0.5% fetal bovine serum, ATP content, read-out: IC50 grading, Lung_HCC827
Method: as §1, §2, §3

[11] = test system: MDA-MB-231 (breast adenocarcinoma); assay: Cell proliferation assay (ATPlite), MDA-MB-231; format: cell-based; settings: Homo sapiens, TABLE D, read-out: IC50 grading, MDA-MB-231
Method: as §1, §2
as §3, with “The cells were incubated with compounds for 72 hours in the presence of 0.5% of fetal bovine serum.” left out

[12] = test system: A549 NSCLC xenograft; assay: A549 NSCLC Xenograft Model; format: in vivo; settings: FIG. 11A, 11B
[13] = test system: Caki-1 (renal carcinoma); assay: Cell proliferation assay (ATPlite), Caki-1; format: cell-based; settings: Homo sapiens, TABLE D, read-out: IC50 grading, Caki-1
Method: as §1, §2
as §3, with “The cells were incubated with compounds for 72 hours in the presence of 0.5% of fetal bovine serum.” left out

[14] = test system: Breast_SkBr3 (SKBr3, breast carcinoma); assay: Cell proliferation assay (ATPlite), SkBr3; format: cell-based; settings: Homo sapiens, SK-BR-3; TABLE D; Breast carcinoma; read-out: IC50 grading, SKBr3
Method: as §1, §2
as §3, with “The cells were incubated with compounds for 72 hours in the presence of 0.5% of fetal bovine serum.” left out

[15] = test system: Prostate_22RV1 (22RV1, prostate carcinoma); assay: Cell proliferation assay (ATPlite), 22RV1; format: cell-based; settings: Homo sapiens, TABLE D, Prostate carcinoma, read-out: IC50 grading, 22RV1
Method: as §1, §2
as §3, with “The cells were incubated with compounds for 72 hours in the presence of 0.5% of fetal bovine serum.” left out

[16] = test system: Epidermoid_A431 (A431, epidermoid carcinoma); assay: Cell proliferation assay (ATPlite), A431; format: cell-based; settings: Homo sapiens, A-431; TABLE D; Epidermoid carcinoma; read-out: IC50 grading, A431
Method: as §1, §2
as §3, with “The cells were incubated with compounds for 72 hours in the presence of 0.5% of fetal bovine serum.” left out

[17] = test system: Breast_MCF7 (MCF-7, breast adenocarcinoma); assay: Cell proliferation assay (ATPlite), MCF7; format: cell-based; settings: Homo sapiens, TABLE D, Breast adenocarcinoma, read-out: IC50 grading, MCF-7
Method: as §1, §2
as §3, with “The cells were incubated with compounds for 72 hours in the presence of 0.5% of fetal bovine serum.” left out

[18] = test system: HCT-116 (colon) and SKBr3 (breast) cancer cells; assay: Induction of apoptosis, Caspase 3&7 activity (FIG. 4); format: cell-based; settings: concentration <20 μM
[19] = test system: Breast_MDAMB468 (MDA-MB-468, breast adenocarcinoma); assay: Cell proliferation assay (ATPlite), MDA-MB-468; format: cell-based; settings: Homo sapiens, TABLE D, Breast adenocarcinoma, read-out: IC50 grading, MDA-MB-468
Method: as §1, §2
as §3, with “The cells were incubated with compounds for 72 hours in the presence of 0.5% of fetal bovine serum.” left out

[20] = test system: Colon_HCT116 (HCT116, colon cancer); assay: Cell proliferation assay (ATPlite), HCT116; format: cell-based; settings: Homo sapiens, HCT-116; TABLE D; Colon cancer; read-out: IC50 grading, HCT116
Method: as §1, §2
as §3, with “The cells were incubated with compounds for 72 hours in the presence of 0.5% of fetal bovine serum.” left out

[21] = test system: ER mRNA expression in human ER-negative breast cancer cell lines; settings: Yang et al. Cancer Res., 2001; cited from earlier work

Sequence of C-Raf (P04049 whole entry Y340D/Y341D): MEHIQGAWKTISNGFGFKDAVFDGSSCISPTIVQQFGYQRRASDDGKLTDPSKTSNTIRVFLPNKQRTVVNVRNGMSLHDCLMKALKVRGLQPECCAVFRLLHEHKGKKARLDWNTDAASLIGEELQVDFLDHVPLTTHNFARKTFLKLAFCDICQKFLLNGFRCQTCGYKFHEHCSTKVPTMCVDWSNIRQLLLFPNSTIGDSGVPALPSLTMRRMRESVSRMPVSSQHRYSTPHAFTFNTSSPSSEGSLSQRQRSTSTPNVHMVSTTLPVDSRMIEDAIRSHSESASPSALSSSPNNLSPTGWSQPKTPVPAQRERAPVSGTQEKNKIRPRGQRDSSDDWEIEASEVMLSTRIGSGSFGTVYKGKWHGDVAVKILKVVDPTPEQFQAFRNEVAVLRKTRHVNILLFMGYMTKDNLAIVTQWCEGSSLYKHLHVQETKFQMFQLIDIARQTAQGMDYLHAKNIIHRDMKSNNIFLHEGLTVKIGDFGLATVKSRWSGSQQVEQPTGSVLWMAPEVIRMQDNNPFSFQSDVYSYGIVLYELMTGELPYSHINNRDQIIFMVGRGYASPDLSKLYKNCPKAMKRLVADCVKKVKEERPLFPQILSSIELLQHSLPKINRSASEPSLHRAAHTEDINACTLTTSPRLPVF

Row | Compound | IC50 [2] [nM] | IC50 [3] [nM] | IC50 [4] [nM] | IC50 [5] [nM] | IC50 [7] [nM] | IC50 [8] [nM] | IC50 [1] [nM] | IC50 [6] [µM] | also measured
1 | O=C(CCCCCNC(=O)c1cc(Oc2ccc(NC(=O)Nc3ccc(Cl)c(C(F)(F)F)c3)cc2)ccn1)NO [Compound 5] | – | – | – | – | – | – | 1000 to 10000 | – | –
2 | O=C(CCCCCCC(=O)Nc1cc(Oc2ccc(NC(=O)Nc3ccc(Cl)c(C(F)(F)F)c3)cc2)ccn1)NO [Compound 12] | – | – | – | – | – | – | < 100 | – | –
3 | C#Cc1cccc(Nc2ncnc3cc(OCCOC)c(OCCOC)cc23)c1 [Erlotinib, reference compound] | – | – | – | – | – | – | – | – | IC50 [11]: ≥ 5 µM; effect on tumor growth / tumor size [12]: did not significantly affect tumor size; IC50 [13]: 50 to 500 nM; IC50 [14]: ≥ 5 µM; IC50 [15]: 50 to 500 nM; IC50 [16]: 500 to 5000 nM; IC50 [17]: ≥ 5 µM; induction of apoptosis (Caspase 3&7 activity) [18]: inactive; IC50 ([9]; TABLE D, Prostate adenocarcinoma, read-out: IC50 grading, PC-3): ≥ 5000 nM; IC50 [19]: 500 to 5000 nM; IC50 [20]: ≥ 5 µM
4 | CC(/C=C/C(=O)NO)=C\[C@@H](C)C(=O)c1ccc(N(C)C)cc1 [TSA, trichostatin A] | – | – | – | – | – | – | – | – | fold increase in ER mRNA expression [21]: 5 fold

The next lines start with results.

Row | IC50 [2] [nM] | IC50 [3] [nM] | IC50 [4] [nM] | IC50 [5] [nM] | IC50 [7] [nM] | IC50 [8] [nM] | Compound | IC50 [1] [nM] | IC50 [6] [µM] | also measured
5 | 100 to 1000 | 100 to 1000 | 100 to 1000 | 100 to 1000 | 100 to 1000 | 100 to 1000 | COc1cc2ncnc(Nc3ccc(F)c(Cl)c3)c2cc1OCCCCCCC(=O)NO [Compound 6] | – | 1 to 10 | IC50 ([9]; TABLE C, 72 hours, 0.5% fetal bovine serum, ATP content, read-out: IC50 grading, Prostate_PC3): 100 to 1000 nM
6 | 1000 to 10000 | 1000 to 10000 | 1000 to 10000 | 1000 to 10000 | 1000 to 10000 | 1000 to 10000 | C#Cc1cccc(Nc2ncnc3cc(OC)c(NC(=O)CCCCCCC(=O)NO)cc23)c1 [Compound 44] | – | 1 to 10 | IC50 [10]: 100 to 1000 nM
